≈ marks a conversion by molar mass, not a printed value.
Key:
[1] = tested on: middle-aged rats fed a 30% fat diet; conditions: cited from earlier work
[2] = Alcohol solubility (1% wt in 50% v/v ethanol); assay type: physicochemical; conditions: tested at 1% weight in 50% (v/v) ethanol solution
[3] = kinetic study
Excerpt: This structure is like the soluble double metal HCA salts disclosed by Balasubramanyam et al., (U.S. Pat. No. 6,160,172, issued Dec. 12, 2000; U.S. Pat. No. 6,395,296, issued May 28, 2002).

[4] = tested on: human hepatoma cell line Hep G2; conditions: cited from earlier work
[5] = chronic administration; resting and exercising conditions; cited from earlier work
[6] = conditions that elevate de novo lipogenesis; cited from earlier work
[7] = in vivo; cited from earlier work

Structure (SMILES): O=C([O-])CC(O)(C(=O)[O-])C(O)C(=O)[O-].[K+].[K+].[K+] (centres unmarked) [potassium HCA]
- fat as a percentage of body weight [1]: reducing
- protein as a percentage of body weight [1]: increased

Structure (SMILES): O=C(O)CC(O)(C(=O)O)C(O)C(=O)O (centres unmarked) [K/Mg-HCA monomer]
- Alcohol Solubility (50% v/v alcohol; 1% wt test) [2]: 40%
- absorption compared to the dimer [3]: less-absorbed
- solubility (physchem): 250 mg/mL (≈ 1200 mM)

Structure (SMILES): O=C(O)CC(O)(C(=O)O)C(O)C(=O)O (single isomer, unassigned; (-)) [HCA, (−)-hydroxycitric acid]
- incorporation of [1,5-14C]citrate into fatty acids and cholesterol ([4]; 2.5 h and 18 h incubations, 0.5 mM or higher): strongly inhibited
- Cholesterol biosynthesis, of the control value ([4]; incorporation of tritium from tritiated water): 27%
- respiratory exchange ratio [5]: significantly lower
- energy expenditure [6]: increased
- fat synthesis [6]: reduced
- appetite and satiety [7]: promote appetite suppression and satiety

Reference: patent US8367864B2, “Dimeric double metal salts of (−)-hydroxycitric acid, methods of making and uses of same” (Glykon Technologies Group, LLC, priority 2006, dated 2013)
